Measurements: paper PMC9486805, “Identification of a Phage Display-Derived Peptide Interacting with the N-Terminal Region of Factor VII Activating Protease (FSAP) Enables Characterization of Zymogen Activation” (ACS Chemical Biology, 2022)
Bridge positions count the residues as written; N and C are the ends. Ends that are not written are not given here.

Columns and labels:
pro-FSAP in human plasma [1] = target: T1, pro-FSAP in human plasma (Homo sapiens, UniProt Q14520); test: Activation of endogenous pro-FSAP in plasma, fluorogenic substrate turnover; type: biochemical
T1 construct: from tissue; host or cells: human hirudin or citrate plasma from healthy donors, diluted 1:12
T1 sequence (Q14520 24-560): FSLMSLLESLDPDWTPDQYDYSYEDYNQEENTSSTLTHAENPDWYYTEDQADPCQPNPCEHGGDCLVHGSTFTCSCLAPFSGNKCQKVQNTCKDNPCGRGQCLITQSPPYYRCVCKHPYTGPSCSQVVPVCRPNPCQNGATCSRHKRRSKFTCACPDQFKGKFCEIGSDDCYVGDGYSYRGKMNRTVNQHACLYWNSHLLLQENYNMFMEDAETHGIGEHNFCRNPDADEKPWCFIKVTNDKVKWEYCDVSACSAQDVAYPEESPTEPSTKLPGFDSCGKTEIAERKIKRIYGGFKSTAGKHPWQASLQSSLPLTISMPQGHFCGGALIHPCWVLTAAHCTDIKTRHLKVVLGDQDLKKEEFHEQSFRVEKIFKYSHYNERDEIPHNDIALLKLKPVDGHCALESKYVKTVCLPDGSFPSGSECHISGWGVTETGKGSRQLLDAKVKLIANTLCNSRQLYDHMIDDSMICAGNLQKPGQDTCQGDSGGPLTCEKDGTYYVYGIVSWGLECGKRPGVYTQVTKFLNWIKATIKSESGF
Experimental: Human citrate plasma (0.38% w/v) or hirudin plasma (25 μg/mL Lepirudin) was obtained from five healthy donors. Plasma was diluted at 1:12 and mixed with various test substances that potentially activate or inhibit pro-FSAP. Ac–Ala–Lys–Nle–Arg–AMC (amino–methyl–coumarin) was used as a sensitive and specific substrate for FSAP.[35] Hydrolysis of the fluorogenic substrates was measured using a Synergy HI plate reader with excitation at 320 nm and emission at 460 nm at 37 °C for 60 min. The maximal velocity was calculated from the linear part of the progress curve. In limited experiments, the second-generation fluorogenic FSAP substrate (Ac–Pro–DTyr–Lys–Arg–AMC)[34] was used. Pro-uPA activation, formation of FSAP−α2-antiplasmin, and western blotting with anti-FSAP antibodies were also used to monitor pro-FSAP activation.

pro-FSAP in human plasma [2] = target: T1, pro-FSAP in human plasma; settings: NNKC9/41; cited from earlier work
From the text: The contact pathway of blood coagulation is activated by negatively charged surfaces,[44] and we also tested whether it was involved in any way in the pro-FSAP activation process. […] The kallikrein inhibitor PKS1-527 had no effect,[43] but aprotinin, a general serine protease inhibitor, blocked pro-FSAP activation/activ ...

[3] = target: T2, pro-FSAP purified from human plasma (Homo sapiens, UniProt Q14520); test: Pro-FSAP activation assay, purified pro-FSAP, chromogenic substrate S-2288; type: biochemical
T2 construct: Pro-FSAP was isolated from human plasma as described before; from tissue; host or cells: human plasma
T2 sequence (Q14520 24-560): as above
Experimental: Figure 1 Isolation of pro-FSAP binding peptides and their activity: (A) strategy to isolate high-affinity phages from the NNKC9 and NNK11 libraries that bind to pro-FSAP. To select for strong binders, an excess of free pro-FSAP protein was used for competitive elution of low-affinity binders. High-affinity binders retained on the beads were analyzed further. The sequences of major positive clones identified through an ELISA-based binding assay from the NNKC9 and NNK11 libraries are shown. (B) NNK11/189 and scrambled controls (0–50 μM) and histones (0–50 μg/mL) were added to purified pro-FSAP (1.0 μg/mL) and the turnover of the chromogenic substrate S-2288 (200 μM) was measured. (C) NNKC9/41 was compared to a peptide that was synthetically monocyclized (Cys–Cys cyclic), a peptide with Ser residues instead of Cys at both ends (Ser–Ser linear), a peptide with Ser residues at the end cyclized head to tail (Ser–Ser cyclic), and a scrambled peptide in a pro-FSAP activation assay. (D) Hirudin plasma (1:12 dilution) was incubated with histones (25 μg/mL), NNKC9/41, or Ser–Ser linear control (each, 25 μM), the fluorogenic substrate turnover (Ac–Ala–Lys–Nle–Arg–AMC) was monitored in duplicate wells, and results from a single well are shown. In panels (B) and (C), results are shown as mean + range (duplicate wells). Results were replicated with five different batches of NNKC9/41 (panels (B) and (C)).
Pro-FSAP was isolated from human plasma as described before.[14] The content of the zymogen form varied from 50% to 90% due to autoactivation during the purification process. Histones, isolated from the calf thymus, were obtained from Sigma-Aldrich (Oslo, Norway). FSAP activity assays were performed as described previously.[51] In brief, microtiter wells were blocked with TBS (25 mM Tris–HCl, pH 7.5, and 150 mM NaCl) containing 3% (w/v) BSA for 1 h and washed with TBS-T. The standard assay consisted of TBS-T with 0.3% (w/v) BSA and CaCl2 (2 mM) 1 μg/mL (15 nM) plasma purified pro-FSAP and 250 μM chromogenic substrate S-2288 (D-Ile-L-Pro-L-Arg-p-nitroaniline dihydrochloride) (Haemochrome Diagnostica, Essen, Germany) and was followed at 37 °C at 405 nm in a microplate reader Synergy HI plate reader (BioTek Instruments, Winooski). In some experiments, a fluorescent substrate of FSAP[35] was used.

purified pro-FSAP = settings: heparin ref 13, 14; nucleic acids ref 15, 16; dextran sulfate ref 13; cited from earlier work
From the text: This leads to cleavag ...

EGF3 domain of FSAP = settings: cited from earlier work
From the text: To identify the domain of FSAP responsible for binding to NNKC9/41, we expressed various domain deletion mutants of pro-FSAP as His-tagged proteins in E. coli as described before.[36] The N-terminus of pro- FSAP (heavy chain) consists of the intrinsically disordered N-terminal region (NTR), three EGF domains, and a kringle domain, whereas the C-terminal-light chain contains the serine protease domain (SPD) (Figure 2C). […] The recombinant proteins (Figure 2D) were captured on polyclonal FSAP an ...

[4] = hirudin plasma, Ac–Pro–DTyr–Lys–Arg–AMC (Fig S3)

**Q.** With “CRGAMWMYKRC (disulfide 1-11 (inferred)) [cyclic dimer, antiparallel cyclic dimer of NNKC9/41 through terminal Cys groups]” as the molecule, how does the “presence in HPLC fractions active in pro-FSAP activation” value (pro-FSAP in human plasma [1]; RP-HPLC fractions of NNKC9/41 tested in hirudin plasma, LC–MS (Fig S1)) read?
**A.** found in all of the active fractions

**Q.** And the “activity at higher concentrations” value (pro-FSAP in human plasma [1]; [4])?
**A.** pronounced decrease in activity at higher concentrations

**Q.** And the “maximal activity vs NNKC9/41” value (pro-FSAP in human plasma [1]; [4])?
**A.** slightly lower

**Q.** With `Cl.NCC1CCC(C(=O)N[C@@H](Cc2ccccc2)C(=O)Nc2ccc(CC(=O)O)cc2)CC1` (stereo partly shown) [PKS1-527] as the molecule, how does the “effect of kallikrein inhibitor” value (pro-FSAP in human plasma [2]) read?
**A.** had no effect

**Q.** With aprotinin [reference compound] as the molecule, how does the “effect of inhibitor on pro-FSAP activation by the peptide” value (pro-FSAP in human plasma [1]; hirudin plasma 1:12, NNKC9/41 25 μM, CTI 80 μg/mL, aprotinin 100 μg/mL, MA-570 20 μg/mL, read-outs of Fig 4D–F (MA-FSAP-570 only Fig 4D,E)) read?
**A.** blocked pro-FSAP activation/activity

**Q.** Which EC50 ([3]; purified pro-FSAP activation, S-2288, linear synthetic peptide stored under oxidative conditions, five batches) does the source give for “CRGAMWMYKRC (not fully specified (N-terminus); also: oxidation gives mixture of Cys1-Cys11 monocycle and disulfide-linked antiparallel dimers) [NNKC9/41]” here?
**A.** 8 to 15 µM

**Q.** Which “activation of purified pro-FSAP” value (purified pro-FSAP) does the source give for dextran sulfate here?
**A.** activate purified pro-FSAP

**Q.** For heparin, which “activation of purified pro-FSAP” value (purified pro-FSAP) is on record?
**A.** activate purified pro-FSAP

**Q.** What about the “binding to the EGF3 domain” value (EGF3 domain of FSAP) of the same molecule?
**A.** binds to the EGF3 domain

**Q.** Which “effect on pro-FSAP activation” value ([3]; purified pro-FSAP 1.0 μg/mL, peptides 0–50 μM, histones 0–50 μg/mL, S-2288 (200 μM in legend b10, 250 μM in method b60), 37 °C, 405 nm, duplicate wells) does the source give for IDCLMQNAGSA [NNK11/189] here?
**A.** did not have any effect on pro-FSAP activation
